Measured values taken from patent US9884842B2, “Combretastatin analogs” (The Board of Trustees of the University of Arkansas, priority 2013, dated 2018).

Experiments:
M14 = test: NCI growth inhibition and cytotoxicity screen, Melanoma panel; conditions: Homo sapiens; for GI50: M14; for CC50: M14, read-out: LC50
SK-MEL-5 = test: as above; conditions: Homo sapiens; for GI50: SK-MEL-5; for CC50: SK-MEL-5, read-out: LC50
UACC-62 = test: as above; conditions: Homo sapiens; for GI50: UACC-62; for CC50: UACC-62, read-out: LC50
SR = test: NCI growth inhibition and cytotoxicity screen, Leukemia panel; conditions: Homo sapiens; for CC50: read-out: LC50
NCI/ADR-RES = test: NCI growth inhibition and cytotoxicity screen, Ovarian Cancer panel; conditions: Homo sapiens; for CC50: read-out: LC50
TK-10 = test: NCI growth inhibition and cytotoxicity screen, Renal Cancer panel; conditions: Homo sapiens; for GI50: TK-10; for CC50: TK-10, read-out: LC50
SW-620 = test: NCI growth inhibition and cytotoxicity screen, Colon Cancer panel; conditions: Homo sapiens; for GI50: SW-620; for CC50: SW-620, read-out: LC50
SK-MEL-28 = test: NCI growth inhibition and cytotoxicity screen, Melanoma panel; conditions: Homo sapiens; for GI50: SK-MEL-28; for CC50: SK-MEL-28, read-out: LC50
786-0 = test: NCI growth inhibition and cytotoxicity screen, Renal Cancer panel; conditions: Homo sapiens; for GI50: 786-0; for CC50: 786-0, read-out: LC50
PC-3 = test: NCI growth inhibition and cytotoxicity screen, Prostate Cancer panel; conditions: Homo sapiens; for GI50: PC-3; for CC50: PC-3, read-out: LC50
HCT-15 = test: NCI growth inhibition and cytotoxicity screen, Colon Cancer panel; conditions: Homo sapiens; for GI50: HCT-15; for CC50: HCT-15, read-out: LC50
MDA-MB-468 = test: cells; conditions: Homo sapiens; for GI50: MDA-MB-468; for CC50: MDA-MB-468, read-out: LC50
HT29 = test: NCI growth inhibition and cytotoxicity screen, Colon Cancer panel; conditions: Homo sapiens; for GI50: HT-29; for CC50: HT-29, read-out: LC50
OVCAR-8 = test: NCI growth inhibition and cytotoxicity screen, Ovarian Cancer panel; conditions: Homo sapiens; for GI50: OVCAR-8; for CC50: OVCAR-8, read-out: LC50
HCT-116 = test: NCI growth inhibition and cytotoxicity screen, Colon Cancer panel; conditions: Homo sapiens; for GI50: HCT-116; for CC50: HCT-116, read-out: LC50
ACHN = test: NCI growth inhibition and cytotoxicity screen, Renal Cancer panel; conditions: Homo sapiens; for CC50: read-out: LC50
COLO 205 = test: NCI growth inhibition and cytotoxicity screen, Colon Cancer panel; conditions: Homo sapiens; for GI50: COLO 205; for CC50: COLO 205, read-out: LC50
MCF7 = test: NCI growth inhibition and cytotoxicity screen, Breast Cancer panel; conditions: Homo sapiens; for GI50: MCF7; for CC50: MCF7, read-out: LC50
MOLT-4 = test: NCI growth inhibition and cytotoxicity screen, Leukemia panel; conditions: Homo sapiens; for GI50: MOLT-4; for CC50: MOLT-4, read-out: LC50
NCI-H460 = test: NCI growth inhibition and cytotoxicity screen, Lung Cancer panel; conditions: Homo sapiens; for GI50: NCI-H460; for CC50: NCI-H460, read-out: LC50
MALME-3M = test: NCI growth inhibition and cytotoxicity screen, Melanoma panel; conditions: Homo sapiens; for CC50: read-out: LC50
OVCAR-4 = test: NCI growth inhibition and cytotoxicity screen, Ovarian Cancer panel; conditions: Homo sapiens; for GI50: OVCAR-4; for CC50: OVCAR-4, read-out: LC50
NCI-H322M = test: NCI growth inhibition and cytotoxicity screen, Lung Cancer panel; conditions: Homo sapiens; for CC50: read-out: LC50
KM12 = test: NCI growth inhibition and cytotoxicity screen, Colon Cancer panel; conditions: Homo sapiens; for GI50: KM12; for CC50: KM12, read-out: LC50
HS 578T = test: NCI growth inhibition and cytotoxicity screen, Breast Cancer panel; conditions: Homo sapiens; for CC50: read-out: LC50
HOP-62 = test: NCI growth inhibition and cytotoxicity screen, Lung Cancer panel; conditions: Homo sapiens; for GI50: HOP-62; for CC50: HOP-62, read-out: LC50
SF-268 = test: NCI growth inhibition and cytotoxicity screen, CNS Cancer panel; conditions: Homo sapiens; for GI50: SF-268; for CC50: SF-268, read-out: LC50
CAKI-1 = test: NCI growth inhibition and cytotoxicity screen, Renal Cancer panel; conditions: Homo sapiens; for GI50: CAKI-1; for CC50: CAKI-1, read-out: LC50

COc1cc(OC)cc(/C(C#N)=C/c2c[nH]c3ccccc23)c1 [Formula (I)(b)]
> 100 nM: GI50 (TK-10) | GI50 (MDA-MB-468) | GI50 (OVCAR-8) | GI50 (ACHN) | GI50 (OVCAR-4) | GI50 (HS 578T) | GI50 (HOP-62)
53.5 nM: GI50 (HCT-15)
15200 nM: CC50 (COLO 205)
40.9 nM: GI50 (KM12)
81.1 nM: GI50 (SK-MEL-28)
38.4 nM: GI50 (HT29)
33.4 nM: GI50 (SR)
42.5 nM: GI50 (HCT-116)
> 100000 nM: CC50 (M14) | CC50 (SK-MEL-5) | CC50 (UACC-62) | CC50 (SR) | CC50 (NCI/ADR-RES) | CC50 (TK-10) | CC50 (SW-620) | CC50 (SK-MEL-28) | CC50 (786-0) | CC50 (PC-3) | CC50 (HCT-15) | CC50 (MDA-MB-468) | CC50 (HT29) | CC50 (OVCAR-8) | CC50 (HCT-116) | CC50 (ACHN) | CC50 (MCF7) | CC50 (MOLT-4) | CC50 (NCI-H460) | CC50 (MALME-3M) | CC50 (OVCAR-4) | CC50 (NCI-H322M) | CC50 (KM12) | CC50 (HS 578T) | CC50 (HOP-62) | CC50 (SF-268) | CC50 (CAKI-1)
75.5 nM: GI50 (PC-3)
49.3 nM: GI50 (UACC-62)
78.3 nM: GI50 (SF-268)
48.6 nM: GI50 (SK-MEL-5)
33.3 nM: GI50 (NCI/ADR-RES)
42.4 nM: GI50 (M14)
47.7 nM: GI50 (COLO 205)
39.2 nM: GI50 (NCI-H460)
44.1 nM: GI50 (SW-620)
41.4 nM: GI50 (MCF7)
77.3 nM: GI50 (786-0)
35 nM: GI50 (CAKI-1)
49.1 nM: GI50 (MOLT-4)

COc1cc(/C(C#N)=C\c2cc3ccccc3s2)cc(OC)c1OC [Formula (I)(a)]
18.3 nM: GI50 (NCI-H322M)
250 nM: CC50 (COLO 205)
> 100000 nM: CC50 (M14) | CC50 (SK-MEL-5) | CC50 (UACC-62) | CC50 (SR) | CC50 (NCI/ADR-RES) | CC50 (TK-10) | CC50 (SW-620) | CC50 (SK-MEL-28) | CC50 (786-0) | CC50 (PC-3) | CC50 (HCT-15) | CC50 (MDA-MB-468) | CC50 (HT29) | CC50 (OVCAR-8) | CC50 (HCT-116) | CC50 (ACHN) | CC50 (MCF7) | CC50 (MOLT-4) | CC50 (NCI-H460) | CC50 (MALME-3M) | CC50 (OVCAR-4) | CC50 (NCI-H322M) | CC50 (KM12) | CC50 (HS 578T) | CC50 (HOP-62) | CC50 (SF-268) | CC50 (CAKI-1)
37.8 nM: GI50 (CAKI-1)
< 10 nM: GI50 (M14) | GI50 (SK-MEL-5) | GI50 (UACC-62) | GI50 (SR) | GI50 (NCI/ADR-RES) | GI50 (TK-10) | GI50 (SW-620) | GI50 (SK-MEL-28) | GI50 (786-0) | GI50 (PC-3) | GI50 (HCT-15) | GI50 (MDA-MB-468) | GI50 (HT29) | GI50 (OVCAR-8) | GI50 (HCT-116) | GI50 (ACHN) | GI50 (COLO 205) | GI50 (MCF7) | GI50 (MOLT-4) | GI50 (NCI-H460) | GI50 (MALME-3M) | GI50 (OVCAR-4) | GI50 (KM12) | GI50 (HS 578T) | GI50 (HOP-62) | GI50 (SF-268)
